# Tested on: retinal ganglion cells
# Assay: Optic nerve injury model ("optic crush" model), retinal ganglion cell survival
# Format: in vivo
# Details: male mice, intraocular injection following optic nerve injury, 14 days after injury, compared with PBS control; difference statistically significant (FIG. 1)
# Description: A PDE1 inhibitory compound was tested in an optic nerve injury model (i.e., the “optic crush” model). The studies described below were carried out using the selective PDE1 inhibitor IC200041, which has the following structure:
# In this model, optic nerve surgeries were performed on male mice 8 weeks of age (average body weight, 20-26 g) under general anesthesia, as described previously (Yin Y, et al., Oncomodulin links inflammation to optic nerve regeneration. Proc Natl Acad Sci USA. 2009; 106:19587-19592). Following nerve injury, 3 μl of fluid was removed from the eye and a solution containing the PDE1 inhibitory compound was injected intraocularly.
# A total of 4 mouse retinas were treated with the PDE1 inhibitor, and phosphate buffered saline (PBS) was administered to a total of 10 mouse retinas as a control. Mice were typically euthanized with an overdose of anesthesia 14 days after optic nerve injury and were perfused with saline and 4% paraformaldehyde (PFA). These mice were 10 weeks old when killed. Optic nerves and eyes were dissected and postfixed in PFA. […] Axons were counted manually in at least 8 longitudinal sections per case at pre-specified distances from the injury site, and these numbers were converted into the number of regenerating axons at various distances.
smiles,measurement,value
CN1C(=O)c2c(nn(Cc3ccc(-c4ccccn4)cc3)c2Nc2ccccc2)N2C1=N[C@@H]1CCC[C@@H]12 [IC200041],survival of retinal ganglion cells,highly effective in increasing the survival of retinal ganglion cells
